One assay has as its system Influenza A virus. Nature of the assay: microbe, parasite or virus in culture. The note with it: H5N1.
With `O=C(CSc1nnc(COc2ccc3ccccc3c2)o1)NCc1ccc(F)cc1`, the EC50 came out at 3700 nM. On the same count and under the same terms, then `O=C(CSc1nnc(-c2ccc3ncccc3c2)o1)NCc1ccc(Cl)c(Cl)c1`, with 110 nM; and `CCC(CC)O[C@@H]1C=C(C(=O)O)C[C@H](N)[C@H]1NC(C)=O` [OSELTAMIVIR CARBOXYLATE], with 1470 nM.

Tested on in the next assay: not listed separately
Nature of the assay: Inhibition of wild type influenza A virus H5N1 A/Anhui/1/2005 Neuraminidase using MUNANA as substrate.
Conditions: not given
In the case of `COc1cc(NC(=O)CSc2nnc(COc3ccc4ccccc4c3)o2)cc(OC)c1OC`, the IC50 turned out to be 43800 nM.

`O=C(CSc1nnc(COc2ccc3ccccc3c2)o1)NCCc1cccc(F)c1` displayed an IC50 of 1160 nM. The same measure, in the same setting: then `O=C(CSc1nnc(COc2ccc3ccccc3c2)o1)NCc1ccc(F)cc1`, with 140 nM; and `COc1ccc(CCNC(=O)CSc2nnc(COc3ccc4ccccc4c3)o2)cc1OC`, with 2820 nM. Same read-out and setting: then `O=C(CSc1nnc(-c2ccc3ncccc3c2)o1)NCc1ccc(Cl)c(Cl)c1`, with 470 nM; and `O=C(CSc1nnc(-c2ccc3ncccc3c2)o1)NCCc1cccc(F)c1`, with 10700 nM; and `CCC(CC)O[C@@H]1C=C(C(=O)O)C[C@H](N)[C@H]1NC(C)=O` [OSELTAMIVIR CARBOXYLATE], with 310 nM.

The compound `COc1cccc(CCNC(=O)CSc2nnc(-c3ccc4ncccc4c3)o2)c1` returned a concentration for half-maximal inhibition (IC50) of 2510 nM. Same read-out and setting: then `O=C(CSc1nnc(-c2ccc3ncccc3c2)o1)NCc1ccc(F)cc1`, with 1750 nM; and `Cc1cc([N+](=O)[O-])ccc1NC(=O)CSc1nnc(COc2ccc3ccccc3c2)o1`, with 1350 nM; and `O=C(CSc1nnc(COc2ccc3ccccc3c2)o1)NCCc1ccc2c(c1)OCO2`, with 25600 nM. The same measure, in the same setting: the figure for `O=C(CSc1nnc(-c2ccc3ncccc3c2)o1)NCCc1ccc2c(c1)OCO2` is 81000 nM; for `O=C(CSc1nnc(COc2ccc3ccccc3c2)o1)Nc1ccc(C(F)(F)F)cn1` it is 22700 nM. The compound `COc1ccc(CCNC(=O)CSc2nnc(-c3ccc4ncccc4c3)o2)cc1OC` displayed an IC50 of 2650 nM. `O=C(CSc1nnc(-c2ccc3ncccc3c2)o1)Nc1ccc(C(F)(F)F)cn1` had an IC50 of 1960 nM. In the case of `O=C(CSc1nnc(COc2ccc3ccccc3c2)o1)NCc1ccc(Cl)c(Cl)c1`, the IC50 is 860 nM. In turn, `COc1cc(NC(=O)CSc2nnc(-c3ccc4ncccc4c3)o2)cc(OC)c1OC` yielded an IC50 of 10400 nM. The same measure, in the same setting: then `COc1cccc(CCNC(=O)CSc2nnc(COc3ccc4ccccc4c3)o2)c1`, with 2840 nM.

For the origin of these results see ChEMBL document CHEMBL5506009 (Eur J Med Chem, 2024).
